# Data taken from patent US20210254056A1, “IDENTIFICATION AND TARGETED MODULATION OF GENE SIGNALING NETWORKS” (CAMP4 THERAPEUTICS CORPORATION, priority 2017, published 2021).
# Tested on: hepatocytes
# Assay: RNA-seq of hepatocytes treated with Phase III failure compounds
# Procedure: RNA-seq was performed to determine the effects of the compounds on hepatocytes.
# Significance was determined by the criteria of FPKM≥0.5, a log 2(fold-change)≥1, and a […].
smiles,measurement,setting,value
"Cn1c(COP(=O)(NCCBr)NCCBr)cnc1[N+](=O)[O-] [TH-302 (Evofosfamide), Evofosfamide]",Number (#) of genes having significantly changed expression,,28
same,significant modulation of expression of disease genes,"RNA-seq, q≤0.05, hepatocytes, genes in the value or listed in the block","significantly (q≤0.05) modulate expression of the following genes: FAM111B, FGFR2, PKHD1, and RMRP"
same,"B2M expression, RNA-seq result","gene B2M, hepatocytes",0.16
same,"B9D2 expression, RNA-seq result","gene B9D2, hepatocytes",−0.2
same,"BAAT expression, RNA-seq result","gene BAAT, hepatocytes",0.12
same,"BBOX1 expression, RNA-seq result","gene BBOX1, hepatocytes",0.35
same,"BBS10 expression, RNA-seq result","gene BBS10, hepatocytes",0.24
same,"BCHE expression, RNA-seq result","gene BCHE, hepatocytes",−0.07
same,"BCKDHB expression, RNA-seq result","gene BCKDHB, hepatocytes",−0.17
same,"BCKDK expression, RNA-seq result","gene BCKDK, hepatocytes",0.04
same,"BCO1 expression, RNA-seq result","gene BCO1, hepatocytes",−0.28
same,"BCR expression, RNA-seq result","gene BCR, hepatocytes",−0.01
same,"BLNK expression, RNA-seq result","gene BLNK, hepatocytes",−0.2
same,"BLOC1S3 expression, RNA-seq result","gene BLOC1S3, hepatocytes",0.04
same,"BMPR1A expression, RNA-seq result","gene BMPR1A, hepatocytes",−0.05
same,"BRAF expression, RNA-seq result","gene BRAF, hepatocytes",−0.01
same,"BSCL2 expression, RNA-seq result","gene BSCL2, hepatocytes",−0.03
same,"BTD expression, RNA-seq result","gene BTD, hepatocytes",−0.16
same,"C4A expression, RNA-seq result","gene C4A, hepatocytes",−0.36
same,"C9 expression, RNA-seq result","gene C9, hepatocytes",0.16
same,"C10orf10 expression, RNA-seq result","gene C10orf10, hepatocytes",−0.2
same,"C10orf11 expression, RNA-seq result","gene C10orf11, hepatocytes",−0.71
same,"C15orf41 expression, RNA-seq result","gene C15orf41, hepatocytes",0.08
same,"CA2 expression, RNA-seq result","gene CA2, hepatocytes",0.11
same,"CA5A expression, RNA-seq result","gene CA5A, hepatocytes",−0.1
same,"CA12 expression, RNA-seq result","gene CA12, hepatocytes",0.32
same,"CAV1 expression, RNA-seq result","gene CAV1, hepatocytes",0.13
same,"CCND1 expression, RNA-seq result","gene CCND1, hepatocytes",0.16
same,"CD46 expression, RNA-seq result","gene CD46, hepatocytes",0.08
same,"CD81 expression, RNA-seq result","gene CD81, hepatocytes",0.09
same,"CD320 expression, RNA-seq result","gene CD320, hepatocytes",0.17
same,"CDAN1 expression, RNA-seq result","gene CDAN1, hepatocytes",0.11
same,"CDH1 expression, RNA-seq result","gene CDH1, hepatocytes",−0.56
same,"CEP19 expression, RNA-seq result","gene CEP19, hepatocytes",−0.02
same,"CEP83 expression, RNA-seq result","gene CEP83, hepatocytes",−0.06
same,"CEP164 expression, RNA-seq result","gene CEP164, hepatocytes",−0.03
same,"CEP290 expression, RNA-seq result","gene CEP290, hepatocytes",0.16
same,"CFB expression, RNA-seq result","gene CFB, hepatocytes",0.01
same,"CFHR2 expression, RNA-seq result","gene CFHR2, hepatocytes",0.13
same,"CHRM3 expression, RNA-seq result","gene CHRM3, hepatocytes",−0.58
same,"CIDEC expression, RNA-seq result","gene CIDEC, hepatocytes",−0.06
same,"CLDN1 expression, RNA-seq result","gene CLDN1, hepatocytes",−0.05
same,"COG1 expression, RNA-seq result","gene COG1, hepatocytes",0.12
